Experimental data taken from patent US10358434B2, “2-(3-pyridinyl)-1H-benzimidazole derivative compound and medicament containing same” (NIHON MEDI-PHYSICS CO., LTD., priority 2014, dated 2019).

How the values were obtained:
[1] = tested on: human adrenal gland section expressing aldosterone-producing adenoma; test: In vitro autoradiography using human adrenal adenoma; type: binding
Excerpt: From adrenal gland excised from a human patient for treatment of primary aldosteronism, a portion containing aldosterone-producing adenoma was removed and was then frozen. The frozen adrenal gland was embedded in an embedding agent for production of a frozen tissue section (Tissue-Tek O.C.T. Compound, Sakura Finetek Japan). Using a freezing microtome (CM3050S, Leica Microsystems), a 7-μm thin slice section, which is schematically shown in FIGS. 17(a) and 17(b), was produced, and was preserved at −20° C. before use. In FIGS. 17, 71a and 71b indicate aldosterone-producing adenomas, 72a and 72b indicate normal adrenal cortexes, and 73a and 73b indicate normal adrenal medullas. A 5-33 kBq/mL solution was prepared by adding a suitable amount of each of Compounds [^18F] 100, [^18F] 200, [^123I] 400, [^18F] 500, and [^123I] 601 to [^123I] 610, which were obtained by the methods described in Examples 2, 4, 7, 9, 11, 13, 15, 17, 19, 21, 23, 25, 27, and 29, or [^123I] IMTO to a phosphate-buffered physiological saline containing 1 w/v % bovine serum albumin (not containing fatty acid). The radioactivity concentration was measured using an autowell gamma system (ARC-7001, manufactured by Hitachi Aloka Medical, Ltd.). The section was immersed in the obtained sample solution for 10 minutes. For Compounds [^18F] 100, [^18F] 200, [^123I] 400, [^18F] 500, [^123I] 601 and [^123I] 602, the section shown in FIG. 17(a) was used, and for Compounds […] [^123I] IMTO, both sections shown in FIGS. 17(a) and (b) were used. Each sample solution was washed off, and the section was then exposed to an imaging plate (BAS-SR2040, manufactured by FUJIFILM Holdings Corporation) (IP) for 16-20 hours, and thereafter, an autoradiogram was obtained using a fluoro-image analyzer (FLA-7000, manufactured by FUJIFILM Holdings Corporation).
In order to quantitatively compare differences between images caused by ^123I and ^18F nuclides, a correction was made by calculating accumulation of radioactivity within the range of a region of interest (ROI) by means of integral calculation based on half-life, added radioactivity and IP contact time.
610. FIG. 18(b), FIG. 19(b), FIG. 20(b), FIG. 21(b), FIG. 22(a), FIG. 23(a), FIG. 24(a), FIG. 25(a), FIG. 26(a), FIG. 27(a), FIG. 28(a), FIG. 29(a), FIG. 30(a), and FIG. 31(a) each show an autoradiogram of [^123I] IMTO. […] 100, [^18F] 200, [^123I] 400, [^18F] 500, and [^123I] 601 to [^123I] […] The ROI having the same area as each other was established in a normal site and in a site in which aldosterone-producing adenoma had developed. Then, the PSL value (B1) indicating accumulation of radioactivity in the sites of normal adrenal cortexes 72a and 72b was compared with the PSL value (B2) indicating accumulation of radioactivity in the sites of aldosterone-producing adenomas 71a and 71b. In Table 7, the B1, B2 and B2/B1 values of [^18F] 100 indicate the mean values for the number of tests (n), respectively.

[2] = Plasma stability evaluation (TLC analysis); type: in vitro ADME; conditions: 37° C., 60 minutes
Procedure: Evaluation was made using a heparin-treated normal human plasma pool (Kohjin Bio Co., Ltd.). Compounds [^18F] 100, [^18F] 200, [^123I] 400, [^18F] 500, and [^123I] 601 to 610 obtained by the methods shown in Examples 2, 4, 7, 9, 11, 13, 15, 17, 19, 21, 23, 25, 27, and 29 were each added to the aforementioned human plasma (5 mL), and the obtained mixture was then incubated at 37° C. for 60 minutes. Thereafter, the mixture was centrifuged with addition of methanol, so that a deproteinization treatment was carried out. Thereafter, stability was evaluated by TLC analysis. As TLC analysis conditions, the TLC analysis conditions applied upon the above described synthesis of each compound were applied.

[3] = In vivo kinetics experiment (radioactivity distribution); set-up: species or system Wistar male rat; conditions: rat; for Adrenal gland/blood ratio of radioactivity accumulation / Adrenal gland/fat ratio of radioactivity accumulation / Adrenal gland/kidney ratio of radioactivity accumulation / Adrenal gland/liver ratio of radioactivity accumulation / Adrenal gland/muscle ratio of radioactivity accumulation / Adrenal gland/small intestine ratio of radioactivity accumulation / Radioactivity distribution Adrenal gland / Radioactivity distribution Bladder (including urine) / Radioactivity distribution Blood / Radioactivity distribution Fat / Radioactivity distribution Femur / Radioactivity distribution Heart / Radioactivity distribution Kidney / Radioactivity distribution Large intestine / Radioactivity distribution Liver / Radioactivity distribution Lung / Radioactivity distribution Muscle (lower limbs) / Radioactivity distribution Remaining whole body / Radioactivity distribution Small intestine / Radioactivity distribution Spleen / Radioactivity distribution Stomach / Radioactivity distribution Testis / Radioactivity distribution Whole brain: caudal vein
Procedure: Each of Compounds [^18F] 100, [^18F] 200, [^123I] 400, [^18F] 500, and [^123I] 601 to 610 obtained by the methods described in Examples 2, 4, 7, 9, 11, 13, 15, 17, 19, 21, 23, 25, 27, and 29, or [^123I] IMTO, was diluted with a physiological saline containing 1 w/v % ascorbic acid to prepare a solution to be administered. The above described compound (approximately 1 to 3.7 MBq) was injected into the caudal vein of a Wistar male rat (9 weeks old) under anesthesia with a mixed gas of isoflurane/air, and ten minutes after the injection, the rat was sacrificed by exsanguination. From the thus sacrificed rat, blood and organs (heart, lung, stomach, liver, spleen, small intestine, large intestine, kidney, bladder (including urine), muscle (lower limbs), brain, adrenal gland, testis, fat, femur, or thyroid gland) were excised, and the weights thereof were then measured. Thereafter, radioactivity was measured in the blood, the individual excised organs, and the remaining whole body. Further, 30 and 60 minutes after the administration, the same operations as those described above were carried out. […] The symbol “n” in Tables 9 to 23 indicates the number of rats used. In addition, Tables 9 to 23 also show the ratio of radioactivity accumulation in adrenal grand (% ID/g) to radioactivity accumulation in each of blood, liver, kidney, small intestine, muscle and fat (% ID/g).

Radiochemical purity after incubation in human plasma ([2]; TLC analysis): 92%
Adrenal gland/blood ratio of radioactivity accumulation ([3]; 10 min after administration): 100.87 ± 36.73
Adrenal gland/fat ratio of radioactivity accumulation ([3]; 10 min after administration): 174.42 ± 63.32
Adrenal gland/kidney ratio of radioactivity accumulation ([3]; 10 min after administration): 11.40 ± 5.81
Adrenal gland/liver ratio of radioactivity accumulation ([3]; 10 min after administration): 2.68 ± 1.01
Adrenal gland/muscle ratio of radioactivity accumulation ([3]; 10 min after administration): 88.35 ± 26.16
Adrenal gland/small intestine ratio of radioactivity accumulation ([3]; 10 min after administration): 13.32 ± 3.08
Radioactivity distribution Adrenal gland ([3]; 10 min after administration): 14.35 ± 4.09 % ID/g
Radioactivity distribution Bladder (including urine) ([3]; 10 min after administration): 1.28 ± 0.11 % ID/g
Radioactivity distribution Blood ([3]; 10 min after administration): 0.15 ± 0.01 % ID/g
Radioactivity distribution Fat ([3]; 10 min after administration): 0.08 ± 0.02 % ID/g
Radioactivity distribution Femur ([3]; 10 min after administration): 0.38 ± 0.03 % ID/g
Radioactivity distribution Heart ([3]; 10 min after administration): 0.32 ± 0.03 % ID/g
Radioactivity distribution Kidney ([3]; 10 min after administration): 1.39 ± 0.39 % ID/g
Radioactivity distribution Large intestine ([3]; 10 min after administration): 0.16 ± 0.01 % ID/g
Radioactivity distribution Liver ([3]; 10 min after administration): 5.54 ± 0.78 % ID/g
Radioactivity distribution Lung ([3]; 10 min after administration): 0.54 ± 0.07 % ID/g
Radioactivity distribution Muscle (lower limbs) ([3]; 10 min after administration): 0.16 ± 0.00 % ID/g
Radioactivity distribution Remaining whole body ([3]; 10 min after administration): 0.15 ± 0.00 % ID/g
Radioactivity distribution Small intestine ([3]; 10 min after administration): 1.07 ± 0.07 % ID/g
Radioactivity distribution Spleen ([3]; 10 min after administration): 1.49 ± 0.32 % ID/g
Radioactivity distribution Stomach ([3]; 10 min after administration): 0.36 ± 0.04 % ID/g
Radioactivity distribution Testis ([3]; 10 min after administration): 0.04 ± 0.00 % ID/g
Radioactivity distribution Whole brain ([3]; 10 min after administration): 0.02 ± 0.00 % ID/g
Adrenal gland/blood ratio of radioactivity accumulation ([3]; 30 min after administration): 145.45 ± 14.69
Adrenal gland/fat ratio of radioactivity accumulation ([3]; 30 min after administration): 425.84 ± 103.54
Adrenal gland/kidney ratio of radioactivity accumulation ([3]; 30 min after administration): 17.00 ± 1.67
Adrenal gland/liver ratio of radioactivity accumulation ([3]; 30 min after administration): 5.06 ± 0.59
Adrenal gland/muscle ratio of radioactivity accumulation ([3]; 30 min after administration): 158.65 ± 18.59
Adrenal gland/small intestine ratio of radioactivity accumulation ([3]; 30 min after administration): 8.44 ± 1.36
Radioactivity distribution Adrenal gland ([3]; 30 min after administration): 22.61 ± 2.12 % ID/g
Radioactivity distribution Bladder (including urine) ([3]; 30 min after administration): 2.82 ± 1.27 % ID/g
Radioactivity distribution Blood ([3]; 30 min after administration): 0.16 ± 0.00 % ID/g
Radioactivity distribution Fat ([3]; 30 min after administration): 0.06 ± 0.02 % ID/g
Radioactivity distribution Femur ([3]; 30 min after administration): 0.40 ± 0.10 % ID/g
Radioactivity distribution Heart ([3]; 30 min after administration): 0.33 ± 0.02 % ID/g
Radioactivity distribution Kidney ([3]; 30 min after administration): 1.33 ± 0.03 % ID/g
Radioactivity distribution Large intestine ([3]; 30 min after administration): 0.27 ± 0.04 % ID/g
Radioactivity distribution Liver ([3]; 30 min after administration): 4.48 ± 0.13 % ID/g
Radioactivity distribution Lung ([3]; 30 min after administration): 0.48 ± 0.04 % ID/g
Radioactivity distribution Muscle (lower limbs) ([3]; 30 min after administration): 0.14 ± 0.01 % ID/g
Radioactivity distribution Remaining whole body ([3]; 30 min after administration): 0.13 ± 0.02 % ID/g
Radioactivity distribution Small intestine ([3]; 30 min after administration): 2.70 ± 0.21 % ID/g
Radioactivity distribution Spleen ([3]; 30 min after administration): 1.09 ± 0.25 % ID/g
Radioactivity distribution Stomach ([3]; 30 min after administration): 0.56 ± 0.06 % ID/g
Radioactivity distribution Testis ([3]; 30 min after administration): 0.05 ± 0.04 % ID/g
Radioactivity distribution Whole brain ([3]; 30 min after administration): 0.01 ± 0.00 % ID/g
Adrenal gland/blood ratio of radioactivity accumulation ([3]; 60 min after administration): 168.33 ± 36.80
Adrenal gland/fat ratio of radioactivity accumulation ([3]; 60 min after administration): 417.70 ± 25.29
Adrenal gland/kidney ratio of radioactivity accumulation ([3]; 60 min after administration): 18.05 ± 3.00
Adrenal gland/liver ratio of radioactivity accumulation ([3]; 60 min after administration): 6.87 ± 1.26
Adrenal gland/muscle ratio of radioactivity accumulation ([3]; 60 min after administration): 180.41 ± 24.02
Adrenal gland/small intestine ratio of radioactivity accumulation ([3]; 60 min after administration): 5.43 ± 1.42
Radioactivity distribution Adrenal gland ([3]; 60 min after administration): 21.73 ± 3.25 % ID/g
Radioactivity distribution Bladder (including urine) ([3]; 60 min after administration): 5.83 ± 2.21 % ID/g
Radioactivity distribution Blood ([3]; 60 min after administration): 0.13 ± 0.01 % ID/g
Radioactivity distribution Fat ([3]; 60 min after administration): 0.05 ± 0.00 % ID/g
Radioactivity distribution Femur ([3]; 60 min after administration): 0.28 ± 0.00 % ID/g
Radioactivity distribution Heart ([3]; 60 min after administration): 0.27 ± 0.02 % ID/g
Radioactivity distribution Kidney ([3]; 60 min after administration): 1.21 ± 0.04 % ID/g
Radioactivity distribution Large intestine ([3]; 60 min after administration): 0.41 ± 0.06 % ID/g
Radioactivity distribution Liver ([3]; 60 min after administration): 3.18 ± 0.23 % ID/g
Radioactivity distribution Lung ([3]; 60 min after administration): 0.39 ± 0.09 % ID/g
Radioactivity distribution Muscle (lower limbs) ([3]; 60 min after administration): 0.12 ± 0.00 % ID/g
Radioactivity distribution Remaining whole body ([3]; 60 min after administration): 0.12 ± 0.00 % ID/g
Radioactivity distribution Small intestine ([3]; 60 min after administration): 4.13 ± 0.83 % ID/g
Radioactivity distribution Spleen ([3]; 60 min after administration): 0.68 ± 0.05 % ID/g
Radioactivity distribution Stomach ([3]; 60 min after administration): 0.65 ± 0.16 % ID/g
Radioactivity distribution Testis ([3]; 60 min after administration): 0.09 ± 0.00 % ID/g
Radioactivity distribution Whole brain ([3]; 60 min after administration): 0.01 ± 0.00 % ID/g
SMILES: Fc1cc2nc(-c3cncc(Cn4ccnc4)c3)n(CC[18F])c2cc1Br [[^18F] 200, 6-Bromo-5-fluoro-1-(2-[^18F]fluoroethyl)-2-[5-(imidazol-1-ylmethyl)pyridin-3-yl]benzimidazole]
accumulation of radioactivity in adrenal gland section (autoradiogram) ([1]; FIGS. 18 to 31): accumulation of radioactivity was selectively observed in a region in which aldosterone-producing adenoma had been pathologically observed
B2/B1 accumulation ratio ([1]; section of FIG. 17(a)): 3.34
B2 (PSL value, aldosterone-producing adenoma) ([1]; section of FIG. 17(a), site 71a): 4409
B1 (PSL value, normal adrenal cortex) ([1]; section of FIG. 17(a), site 72a): 1321
stability in human plasma [2]: hardly metabolized and decomposed in the plasma
accumulation of radioactivity in adrenal gland vs blood and peripheral tissues ([3]; Tables 9 to 22): high accumulation of radioactivity in adrenal gland was observed, in comparison to in blood and peripheral tissues
